Laboratory results as given in patent US9732063B2, “Kinase inhibitors” (RESPIVERT LIMITED, priority 2012, dated 2017).
Read-outs that look alike come from different tables or passages of the source.

Legend:
[1] = system: HT29 cells; assay: IL-1β-induced IL-8 release in HT29 cells; type: cell-based; conditions: Homo sapiens
Method: HT29 cells, a human colon adenocarcinoma cell line, are plated in a 96 well plate (24 hrs) and pre-treated with compounds at the desired concentration for 2 hours before addition of 5 ng/mL of IL-1β (Abcam) for 24 hours. Supernatants are harvested for IL-8 quantification by Sandwich ELISA (Duo-set, R&D System). The IC50 is determined from the dose response curve.

[2] = system: PBMCs; assay: LPS-induced TNFα/IL-8 release in PBMC cells; type: cell-based; conditions: Homo sapiens, read-out: IC50 Values for Inhibition of Cytokine Release PBMCs IL-8
Method in brief: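 TNFα and IL-8 in supernatants were measured by sandwich ELISA after 24 h of 1 ng/mL LPS (E. coli O111:B4) at 37 °C, 5% CO2. Test compounds were added 2 h before LPS to PBMCs from healthy subjects, separated on a density gradient.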

[3] = biological target: Syk (Homo sapiens (Human), UniProt P43405); assay: Syk enzyme inhibition (Z-LYTE FRET); type: biochemical
Method in brief: (§1)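 Enzyme was preincubated with test compound (added as 4, 0.4, 0.04 or 0.004 μg/mL solutions) for 2 hr at RT. FRET peptide (8 μM solution) and ATP solution (800 μM for c-Src, 60 μM for Syk) were then added for 1 hr, followed by 1 hr protease development.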

[4] = biological target: c-Src (Homo sapiens (Human), UniProt P12931); assay: c-Src enzyme inhibition (Z-LYTE FRET); type: biochemical
Sequence of c-Src (P12931 whole entry, looked up): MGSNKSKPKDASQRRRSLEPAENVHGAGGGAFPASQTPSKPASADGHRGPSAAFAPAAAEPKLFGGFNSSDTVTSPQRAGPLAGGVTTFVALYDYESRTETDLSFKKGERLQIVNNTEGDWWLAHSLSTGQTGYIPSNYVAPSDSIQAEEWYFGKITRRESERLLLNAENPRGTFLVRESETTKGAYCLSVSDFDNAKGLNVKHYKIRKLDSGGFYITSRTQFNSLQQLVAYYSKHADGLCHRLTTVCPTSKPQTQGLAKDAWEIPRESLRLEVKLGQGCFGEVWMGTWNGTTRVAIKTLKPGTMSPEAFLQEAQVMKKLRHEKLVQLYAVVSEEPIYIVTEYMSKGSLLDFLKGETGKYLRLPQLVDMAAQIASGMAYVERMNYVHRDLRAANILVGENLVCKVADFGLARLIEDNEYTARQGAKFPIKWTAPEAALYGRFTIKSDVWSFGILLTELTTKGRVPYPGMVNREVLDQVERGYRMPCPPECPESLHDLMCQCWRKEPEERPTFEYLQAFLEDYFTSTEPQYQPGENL
Method in brief: as §1

[5] = system: d-U937 cells; assay: LPS-induced TNFα/IL-8 release in d-U937 cells; type: cell-based; conditions: Homo sapiens
Method: Cells are pre-incubated with final concentrations of test compound for 2 hr and are then stimulated with 0.1 μg/mL of LPS (from E. coli: O111:B4, Sigma) for 4 hr. The supernatant is collected for determination of TNFα and IL-8 concentrations by sandwich ELISA (Duo-set, R&D systems). […] The relative 50% effective concentration (REC50) is determined from the resultant concentration-response curve. The inhibition of IL-8 production is calculated at each concentration of test compound by comparison with vehicle control.

[6] = biological target: GSK3α (Homo sapiens (Human), UniProt P49840); assay: GSK 3α enzyme inhibition (Z-LYTE FRET, Method 2); type: biochemical
Sequence of GSK3α (P49840 whole entry): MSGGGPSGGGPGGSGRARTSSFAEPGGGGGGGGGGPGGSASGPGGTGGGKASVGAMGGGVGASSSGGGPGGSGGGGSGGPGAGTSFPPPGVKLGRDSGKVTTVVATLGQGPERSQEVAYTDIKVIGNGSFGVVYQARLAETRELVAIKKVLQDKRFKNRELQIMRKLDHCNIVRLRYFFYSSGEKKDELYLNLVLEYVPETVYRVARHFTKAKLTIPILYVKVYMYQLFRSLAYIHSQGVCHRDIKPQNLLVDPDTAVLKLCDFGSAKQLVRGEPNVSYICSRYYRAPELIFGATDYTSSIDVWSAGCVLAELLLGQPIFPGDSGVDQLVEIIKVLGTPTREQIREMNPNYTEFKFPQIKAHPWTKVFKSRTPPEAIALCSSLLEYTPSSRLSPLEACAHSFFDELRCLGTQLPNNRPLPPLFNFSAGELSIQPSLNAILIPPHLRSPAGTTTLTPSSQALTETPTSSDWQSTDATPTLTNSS
Method in brief: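 Z-LYTE FRET: GSK3α preincubated with compound 2 h at RT, then FRET peptide and ATP added (stocks 8 μM and 40 μM) for 1 h, followed by 1 h protease development. Compound stocks 4–0.004 μg/mL; phosphorylation from coumarin/fluorescein emission ratio.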

[7] = biological target: p38 MAPKα (Homo sapiens (Human), UniProt Q16539); assay: p38 MAPKα enzyme inhibition (Z-LYTE FRET, Method 2); type: biochemical
Sequence of p38 MAPKα (Q16539 whole entry): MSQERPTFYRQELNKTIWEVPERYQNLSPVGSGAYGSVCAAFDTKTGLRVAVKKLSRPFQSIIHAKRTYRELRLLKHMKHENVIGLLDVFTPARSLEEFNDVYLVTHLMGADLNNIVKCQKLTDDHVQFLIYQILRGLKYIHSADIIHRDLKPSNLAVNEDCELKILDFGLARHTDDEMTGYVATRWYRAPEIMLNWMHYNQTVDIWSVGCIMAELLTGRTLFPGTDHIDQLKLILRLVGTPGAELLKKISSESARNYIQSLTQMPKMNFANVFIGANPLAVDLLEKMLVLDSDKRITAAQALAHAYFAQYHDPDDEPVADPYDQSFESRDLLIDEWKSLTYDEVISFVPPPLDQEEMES

[8] = system: PBMCs; assay: IL-2 and IFN gamma release in CD3/CD28 stimulated PBMC cells; type: cell-based; conditions: Homo sapiens
Method in brief: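 They were cultured with compound for 3 days. IL-2 and IFN-γ in supernatants were quantified by sandwich ELISA, and IC50 was derived from the dose-response curve.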

[9] = system: TNBS-induced colitis; conditions: for LP inflammation / Ulcer grade: oral gavage BID, conducted over 2 days, mice; for inflammatory cell infiltrate in the reticular and laminar propria zone / ulcer grade and epithelial repair compared to the vehicle control: dosed orally at either 1 or 5 mg/kg
Method: On Day 0 of the study TNBS (200 μL) is administered intra-colonically via a plastic catheter followed by BID dosing of the vehicle, reference or test compound for 2 or 4 days. During the study animals are weighed every day and stool observations are made and recorded as a score, based on stool consistency. At the time of sacrifice on Day 2 (or Day 4) the large intestine is removed and the length and weight recorded. Sections of the colon are taken for either MPO analysis to determine neutrophil infiltration or for histopathology involving scoring to determine disease severity.

[10] = system: intestinal mucosa biopsies from the inflamed regions of the colon; assay: Human biopsy assay (intestinal mucosa biopsies of ulcerative colitis patients); type: cell-based; conditions: 24 hours; for cytokine (IL-1β, IL-6 and IL-8) release compared to the DMSO control: biopsies from ulcerative colitis patients; for IL-1β release / IL-6 release / IL-8 release: 1 μg/ml, biopsies of UC patients, DMSO control = 100%
Method: Intestinal mucosa biopsies are obtained from the inflamed regions of the colon of IBD patients. […] DMSO control or test compounds at the desired concentration are added to the tissue and incubated for 24 hr in the organ culture chamber. The supernatant is harvested for determination of IL-6, IL-8, IL-1β and TNFα levels by R&D ELISA.

[11] = HT-29, read-out: IC50 Values for Inhibition of Cytokine Release HT29 cells IL-8
[12] = dU937, read-out: IC50 Values for Inhibition of Cytokine Release dU937 cells IL-8
[13] = dU937, read-out: IC50 Values for Inhibition of Cytokine Release dU937 cells TNFα
[14] = read-out: IC50 Values for Inhibition of Cytokine Release PBMCs IL-2
[15] = read-out: IC50 Values for Inhibition of Cytokine Release PBMCs IFNγ

SMILES	IC50 [3]	IC50 [4]	IC50 [6]	IC50 [7]	IC50 [1, 11]	IC50 [2]	IC50 [5, 12]	IC50 [5, 13]	IC50 [8, 14]	IC50 [8, 15]	further results
C#Cc1cccc(Nc2nccc(Oc3ccc(NC(=O)Nc4cc(C(C)(C)C)nn4-c4ccc(OC)nc4)c4ccccc34)n2)c1 [Example 1, 1-(3-(tert-Butyl)-1-(6-methoxypyridin-3-yl)-1H-pyrazol-5-yl)-3-(4-((2-((3-ethynylphenyl)-amino)pyrimidin-4-yl)oxy)naphthalen-1-yl)urea]	77 nM	28 nM	> 10000 nM	316 nM							IC50 ([1]; HT-29, IL-1β-stimulated HT29 cells, read-out: IC50 Values for Inhibition of Cytokine Release HT29 cells IL-8): 17.4 nM; IC50 ([2]; LPS-stimulated PBMCs): 11.5 nM; IC50 ([5]; dU937, LPS-stimulated d-U937 cells, method describes REC50 relative to BIRB796, read-out: IC50 Values for Inhibition of Cytokine Release dU937 cells TNFα): 3.6 nM; IC50 ([5]; dU937, LPS-stimulated d-U937 cells, read-out: IC50 Values for Inhibition of Cytokine Release dU937 cells IL-8): 2.1 nM; IC50 ([8]; CD3/CD28 stimulated PBMCs, read-out: IC50 Values for Inhibition of Cytokine Release PBMCs IL-2): 39.8 nM
COc1ccc(-n2nc(C(C)(C)C)cc2NC(=O)Nc2ccc(Oc3ccnc(Nc4cccc(N=S(C)(C)=O)c4)n3)c3ccccc23)cn1 [Example 2]	15 nM	8 nM	1850 nM	81 nM	18.5 nM	5.3 nM	5.2 nM	16.5 nM	51.1 nM		
COCCOCCOCCOc1cccc(Nc2nccc(Oc3ccc(NC(=O)Nc4cc(C(C)C)nn4-c4ccc(C)cc4)c4ccccc34)n2)c1 [Example 9, 1-(3-Isopropyl-1-(P-tolyl)-1H-pyrazol-5-yl)-3-(4-((2-((3-(2-(2-(2-methoxyethoxy)ethoxy)-ethoxy)phenyl)amino)pyrimidin-4-yl)oxy)naphthalen-1-yl)urea]	> 1000 nM	154 nM	3720 nM	26 nM	4.5 nM	3.1 nM	2.8 nM	1.5 nM			
Cc1ccc(-n2nc(C(C)C)cc2NC(=O)Nc2ccc(Oc3ccnc(Nc4cccc(OS(C)(=O)=O)c4)n3)c3ccccc23)cc1 [Example 11, 3-(4-((4-(3-(3-Isopropyl-1-(p-tolyl)-1H-pyrazol-5-yl)ureido)naphthalen-1-yl)oxy)pyrimidin-2-yl)amino)phenyl methanesulfonate]	> 622 nM	20 nM	8650 nM	50 nM	5.3 nM	3.6 nM	1.4 nM	0.9 nM	151 nM		
COCCOCCOCCOc1cc(Nc2nccc(Oc3ccc(NC(=O)Nc4cc(C(C)C)nn4-c4ccc(C)cc4)c4ccccc34)n2)cc(OC)c1 [Example 13, 1-(3-Isopropyl-1-(p-tolyl)-1H-pyrazol-5-yl)-3-(4-((2-((3-methoxy-5-(2-(2-(2-methoxy-ethoxy)ethoxy)ethoxy)phenyl)amino)pyrimidin-4-yl)oxy)naphthalen-1-yl)urea]		10 nM	> 8920 nM	65 nM	4.7 nM	2.5 nM	1.4 nM	4.4 nM	19.2 nM	3 nM	LP inflammation ([9]; 1 mg/kg): 2.1 ± 0.3; Ulcer grade ([9]; 1 mg/kg): 2.5 ± 0.4; LP inflammation ([9]; 5 mg/kg): 2.6 ± 0.3; Ulcer grade ([9]; 5 mg/kg): 3.1 ± 0.3; inflammatory cell infiltrate in the reticular and laminar propria zone [9]: marked reduction; ulcer grade and epithelial repair compared to the vehicle control [9]: marked improvements; cytokine (IL-1β, IL-6 and IL-8) release compared to the DMSO control ([10]; 0.1 μg/mL (data not shown)): significantly inhibited; cytokine (IL-1β, IL-6 and IL-8) release compared to the DMSO control ([10]; 1 μg/mL): significantly inhibited; IL-1β release [10]: 10 ± 13%; IL-6 release [10]: 32 ± 64%; IL-8 release [10]: 3 ± 4%
COCCOCCOCCOc1cc(Nc2nccc(Oc3ccc(NC(=O)Nc4cc(C(C)(C)C)nn4-c4ccc(C)cc4)c4ccccc34)n2)cc(OC)c1 [Example 37, 1-(3-(tert-Butyl)-1-(p-tolyl)-1H-pyrazol-5-yl)-3-(4-((2-((3-methoxy-5-(2-(2-(2-methoxy-ethoxy)ethoxy)ethoxy)phenyl)amino)pyrimidin-4-yl)oxy)naphthalen-1-yl)urea]	36 nM	11 nM	6360 nM	153 nM	1.7 nM	1.8 nM	1.7 nM		34.8 nM	1.5 nM	
COCCOCCOCCOc1cc(Nc2nccc(Oc3ccc(NC(=O)Nc4cc(C(C)(C)C)nn4-c4ccc(OC)nc4)c4ccccc34)n2)cc(OC)c1 [Example 38, 1-(3-(tert-Butyl)-1-(6-methoxypyridin-3-yl)-1H-pyrazol-5-yl)-3-(4-((2-((3-methoxy-5-(2-(2-(2-methoxyethoxyl)ethoxy)ethoxy)phenyl)amino)pyrimidin-4-yl)oxy)naphthalen-1-yl)urea]	25 nM	10 nM	5440 nM	132 nM	1.8 nM	1.5 nM	1 nM		40.9 nM	1.3 nM	
COc1cc(Nc2nccc(Oc3ccc(NC(=O)Nc4cc(C(C)(C)C)nn4-c4ccc(C)cc4)c4ccccc34)n2)cc(S(=O)(=O)C2CC2)c1 [Example 47, 1-(3-(tert-Butyl)-1-(p-tolyl)-1H-pyrazol-5-yl)-3-(4-((2-((3-(cyclopropylsulfonyl)-5-methoxy-phenyl)amino)pyrimidin-4-yl)oxy)naphthalen-1-yl)urea]		46 nM	6830 nM	162 nM	1.5 nM	2.6 nM	1.2 nM	0.6 nM	95.8 nM	1.1 nM	LP inflammation ([9]; 1 mg/kg): 2.6 ± 0.3; Ulcer grade ([9]; 1 mg/kg): 3.5 ± 0.4; LP inflammation ([9]; 5 mg/kg): 2.1 ± 0.3; Ulcer grade ([9]; 5 mg/kg): 2.8 ± 0.4; inflammatory cell infiltrate in the reticular and laminar propria zone [9]: marked reduction; ulcer grade and epithelial repair compared to the vehicle control [9]: marked improvements; cytokine (IL-1β, IL-6 and IL-8) release compared to the DMSO control ([10]; 1 μg/mL): significantly inhibited; IL-1β release [10]: 5 ± 6%; IL-6 release [10]: 17 ± 5%; IL-8 release [10]: 26 ± 15%
COCCOCCOCCOc1cc(Nc2nccc(Oc3ccc(NC(=O)Nc4cc(C(C)(C)C)nn4-c4ccc(C)cc4)c4ccccc34)n2)cc(OC)n1 [Example 69, 1-(3-(tert-Butyl)-1-(p-tolyl)-1H-pyrazol-5-yl)-3-(4-((2-((2-methoxy-6-(2-(2-(2-methoxyethoxy)ethoxy)ethoxy)pyridin-4-yl)amino)pyrimidin-4-yl)oxy)naphthalen-1-yl)urea]	27 nM	14 nM	> 10000 nM	172 nM	3.1 nM	1.6 nM	0.9 nM	1.2 nM	50.3 nM	1.4 nM	
